Test results taken from PubChem BioAssay AID2060893 (Molecular Pharmacology Branch, DTP, NCI, 2025).
Values belong to the compound of their own block, whether it stands above or below them.

Test system: K86415-001-R-J1-PDC complex spheroids, viability
Test: Anticancer human tumor K86415-001-R-J1-PDC patient-derived lung adenocarcinoma cell line growth inhibition [RAS]
Conditions: for IC50: curve of first compound; for viability, T/C: stronger effect = lower value
Outline: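 Tumour cells grown as complex spheroids with HUVEC endothelial cells and mesenchymal stem cells, treated with RAS pathway inhibitor combinations. Each agent spans half-log steps from near clinical Cmax, or 10 microM where Cmax is unknown.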

[1] = second compound 0.000949 µM, first compound 0.0316 µM
[2] = second compound 0.000949 µM, first compound 0.1 µM
[3] = second compound 0.000949 µM, first compound 0.316 µM
[4] = second compound 0.000949 µM, first compound 1 µM
[5] = second compound 0.003 µM, first compound 0.0316 µM
[6] = second compound 0.003 µM, first compound 0.1 µM
[7] = second compound 0.003 µM, first compound 0.316 µM
[8] = second compound 0.003 µM, first compound 1 µM
[9] = second compound 0.00949 µM, first compound 0.0316 µM
[10] = second compound 0.00949 µM, first compound 0.1 µM
[11] = second compound 0.00949 µM, first compound 0.316 µM
[12] = second compound 0.00949 µM, first compound 1 µM
[13] = second compound 0.03 µM, first compound 0.0316 µM
[14] = second compound 0.03 µM, first compound 0.1 µM
[15] = second compound 0.03 µM, first compound 0.316 µM
[16] = second compound 0.03 µM, first compound 1 µM
[17] = second compound 0.0949 µM, first compound 0.0316 µM
[18] = second compound 0.0949 µM, first compound 0.1 µM
[19] = second compound 0.0949 µM, first compound 0.316 µM
[20] = second compound 0.0949 µM, first compound 1 µM
[21] = second compound 0.3 µM, first compound 0.0316 µM
[22] = second compound 0.3 µM, first compound 0.1 µM
[23] = second compound 0.3 µM, first compound 0.316 µM
[24] = second compound 0.3 µM, first compound 1 µM
[25] = second compound 0.000949 µM, first compound 0.00316 µM
[26] = second compound 0.000949 µM, first compound 0.01 µM
[27] = second compound 0.003 µM, first compound 0.00316 µM
[28] = second compound 0.003 µM, first compound 0.01 µM
[29] = second compound 0.00949 µM, first compound 0.00316 µM
[30] = second compound 0.00949 µM, first compound 0.01 µM
[31] = second compound 0.03 µM, first compound 0.00316 µM
[32] = second compound 0.03 µM, first compound 0.01 µM
[33] = second compound 0.0949 µM, first compound 0.00316 µM
[34] = second compound 0.0949 µM, first compound 0.01 µM
[35] = second compound 0.3 µM, first compound 0.00316 µM
[36] = second compound 0.3 µM, first compound 0.01 µM
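Also: spheroids exposed to agents for seven days before readout.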

IC50 (second compound 0.00316 µM): < 31.6 nM | IC50 (second compound 0.01 µM): < 31.6 nM | IC50 (second compound 0.0316 µM): < 31.6 nM | IC50 (second compound 0.1 µM): < 31.6 nM | IC50 (second compound 0.316 µM): < 31.6 nM | IC50 (second compound 1 µM): < 31.6 nM
Structure (SMILES): CCC(CC)c1cc(NC2CCC(N)C2)n2nccc2n1 (stereo not drawn) + C=CC(=O)N1CCN(c2nc(OCC3CCCN3C)nc3c(F)c(-c4nc(N)cc(C)c4C(F)(F)F)c(Cl)cc23)C(C)C1
viability, T/C (second compound 0.00316 µM, first compound 0.0316 µM): 21.7% | viability, T/C (second compound 0.00316 µM, first compound 0.1 µM): 20.9% | viability, T/C (second compound 0.00316 µM, first compound 0.316 µM): 26.4% | viability, T/C (second compound 0.00316 µM, first compound 1 µM): 45.6% | viability, T/C (second compound 0.00316 µM, first compound 3.16 µM): 2.88% | viability, T/C (second compound 0.00316 µM, first compound 10 µM): 3.26% | viability, T/C (second compound 0.01 µM, first compound 0.0316 µM): 13.3% | viability, T/C (second compound 0.01 µM, first compound 0.1 µM): 12.7% | viability, T/C (second compound 0.01 µM, first compound 0.316 µM): 16.9% | viability, T/C (second compound 0.01 µM, first compound 1 µM): 23.3% | viability, T/C (second compound 0.01 µM, first compound 3.16 µM): 2.98% | viability, T/C (second compound 0.01 µM, first compound 10 µM): 2.44% | viability, T/C (second compound 0.0316 µM, first compound 0.0316 µM): 10.7% | viability, T/C (second compound 0.0316 µM, first compound 0.1 µM): 13.9% | viability, T/C (second compound 0.0316 µM, first compound 0.316 µM): 11.7% | viability, T/C (second compound 0.0316 µM, first compound 1 µM): 15.9% | viability, T/C (second compound 0.0316 µM, first compound 3.16 µM): 3.17% | viability, T/C (second compound 0.0316 µM, first compound 10 µM): 2.7% | viability, T/C (second compound 0.1 µM, first compound 0.0316 µM): 10.3% | viability, T/C (second compound 0.1 µM, first compound 0.1 µM): 12% | viability, T/C (second compound 0.1 µM, first compound 0.316 µM): 12.8% | viability, T/C (second compound 0.1 µM, first compound 1 µM): 13.7% | viability, T/C (second compound 0.1 µM, first compound 3.16 µM): 3.12% | viability, T/C (second compound 0.1 µM, first compound 10 µM): 2.45% | viability, T/C (second compound 0.316 µM, first compound 0.0316 µM): 11.8% | viability, T/C (second compound 0.316 µM, first compound 0.1 µM): 14% | viability, T/C (second compound 0.316 µM, first compound 0.316 µM): 12% | viability, T/C (second compound 0.316 µM, first compound 1 µM): 17.7% | viability, T/C (second compound 0.316 µM, first compound 3.16 µM): 2.62% | viability, T/C (second compound 0.316 µM, first compound 10 µM): 3.41% | viability, T/C (second compound 1 µM, first compound 0.0316 µM): 10.5% | viability, T/C (second compound 1 µM, first compound 0.1 µM): 13.1% | viability, T/C (second compound 1 µM, first compound 0.316 µM): 15.1% | viability, T/C (second compound 1 µM, first compound 1 µM): 14.7% | viability, T/C (second compound 1 µM, first compound 3.16 µM): 3.95% | viability, T/C (second compound 1 µM, first compound 10 µM): 4.47%

IC50 (second compound 0.000949 µM): < 31.6 nM | IC50 (second compound 0.003 µM): < 31.6 nM | IC50 (second compound 0.00949 µM): < 31.6 nM | IC50 (second compound 0.03 µM): < 31.6 nM | IC50 (second compound 0.0949 µM): < 31.6 nM | IC50 (second compound 0.3 µM): < 31.6 nM
Structure (SMILES): CC(Nc1ccc2c(c1)OCCn1cc(N3C(=O)OCC3C(F)F)nc1-2)C(N)=O (stereo not drawn) + CCn1c(-c2cccnc2C(C)OC)c2c3cc(ccc31)N1CCOC(CC(NC(=O)C(C(C)C)N(C)C(=O)C3(F)CCN(C(=O)C#CC(C)(C)N(C)C)CC3)C(=O)N3CCCC(N3)C(=O)OCC(C)(C)C2)C1
viability, T/C [1]: 26.6% | viability, T/C [2]: 24.9% | viability, T/C [3]: 14.1% | viability, T/C [4]: 24.3% | viability, T/C (second compound 0.000949 µM, first compound 3.16 µM): 8.98% | viability, T/C (second compound 0.000949 µM, first compound 10 µM): 1.64% | viability, T/C [5]: 11.9% | viability, T/C [6]: 8% | viability, T/C [7]: 6.61% | viability, T/C [8]: 4.14% | viability, T/C (second compound 0.003 µM, first compound 3.16 µM): 2.69% | viability, T/C (second compound 0.003 µM, first compound 10 µM): 0.95% | viability, T/C [9]: 9.31% | viability, T/C [10]: 8.26% | viability, T/C [11]: 6.9% | viability, T/C [12]: 3.65% | viability, T/C (second compound 0.00949 µM, first compound 3.16 µM): 1.68% | viability, T/C (second compound 0.00949 µM, first compound 10 µM): 1.1% | viability, T/C [13]: 8.58% | viability, T/C [14]: 7.61% | viability, T/C [15]: 6.15% | viability, T/C [16]: 2.63% | viability, T/C (second compound 0.03 µM, first compound 3.16 µM): 1.91% | viability, T/C (second compound 0.03 µM, first compound 10 µM): 1.86% | viability, T/C [17]: 10.4% | viability, T/C [18]: 8.62% | viability, T/C [19]: 4.05% | viability, T/C [20]: 3.24% | viability, T/C (second compound 0.0949 µM, first compound 3.16 µM): 1.57% | viability, T/C (second compound 0.0949 µM, first compound 10 µM): 1.22% | viability, T/C [21]: 8.96% | viability, T/C [22]: 6.86% | viability, T/C [23]: 3.94% | viability, T/C [24]: 2.09% | viability, T/C (second compound 0.3 µM, first compound 3.16 µM): 1.58% | viability, T/C (second compound 0.3 µM, first compound 10 µM): 1.59%

IC50 (second compound 0.000949 µM): < 3.16 nM | IC50 (second compound 0.003 µM): < 3.16 nM | IC50 (second compound 0.00949 µM): < 3.16 nM | IC50 (second compound 0.03 µM): < 3.16 nM | IC50 (second compound 0.0949 µM): < 3.16 nM | IC50 (second compound 0.3 µM): < 3.16 nM
Structure (SMILES): C=CC(=O)Nc1cc(Nc2nccc(-c3cn(C)c4ccccc34)n2)c(OC)cc1N(C)CCN(C)C + CCn1c(-c2cc(N3CCN(C)CC3)cnc2C(C)OC)c2c3cc(ccc31)-c1csc(n1)CC(NC(=O)C1CC1C)C(=O)N1CCCC(N1)C(=O)OCC(C)(C)C2
viability, T/C [25]: 42.7% | viability, T/C [26]: 48.3% | viability, T/C [1]: 35.9% | viability, T/C [2]: 38.2% | viability, T/C [3]: 21.3% | viability, T/C [4]: 12.4% | viability, T/C [27]: 24.9% | viability, T/C [28]: 21.3% | viability, T/C [5]: 14.2% | viability, T/C [6]: 17% | viability, T/C [7]: 8.65% | viability, T/C [8]: 7.93% | viability, T/C [29]: 17.6% | viability, T/C [30]: 9.97% | viability, T/C [9]: 7.46% | viability, T/C [10]: 8.25% | viability, T/C [11]: 4.55% | viability, T/C [12]: 4.52% | viability, T/C [31]: 7.56% | viability, T/C [32]: 5.27% | viability, T/C [13]: 5.75% | viability, T/C [14]: 3.23% | viability, T/C [15]: 3.09% | viability, T/C [16]: 3.11% | viability, T/C [33]: 3.51% | viability, T/C [34]: 3.84% | viability, T/C [17]: 2.21% | viability, T/C [18]: 2.65% | viability, T/C [19]: 3.94% | viability, T/C [20]: 3.24% | viability, T/C [35]: 2.73% | viability, T/C [36]: 2.35% | viability, T/C [21]: 2.65% | viability, T/C [22]: 2.51% | viability, T/C [23]: 2.55% | viability, T/C [24]: 3.25%

IC50 (second compound 0.000949 µM): < 3.16 nM | IC50 (second compound 0.003 µM): < 3.16 nM | IC50 (second compound 0.00949 µM): < 3.16 nM | IC50 (second compound 0.03 µM): < 3.16 nM | IC50 (second compound 0.0949 µM): < 3.16 nM | IC50 (second compound 0.3 µM): < 3.16 nM
Structure (SMILES): O=C(c1ccc(F)c(F)c1Nc1ccc(I)cc1F)N1CC(O)([C@@H]2CCCCN2)C1 + CCn1c(-c2cc(N3CCN(C)CC3)cnc2C(C)OC)c2c3cc(ccc31)-c1csc(n1)CC(NC(=O)C1CC1C)C(=O)N1CCCC(N1)C(=O)OCC(C)(C)C2
viability, T/C [25]: 44.4% | viability, T/C [26]: 36.8% | viability, T/C [1]: 16.1% | viability, T/C [2]: 14.3% | viability, T/C [3]: 7.06% | viability, T/C [4]: 3.12% | viability, T/C [27]: 20.1% | viability, T/C [28]: 12.8% | viability, T/C [5]: 8.83% | viability, T/C [6]: 4.83% | viability, T/C [7]: 3.13% | viability, T/C [8]: 1.88% | viability, T/C [29]: 12.8% | viability, T/C [30]: 20.7% | viability, T/C [9]: 3.97% | viability, T/C [10]: 3.06% | viability, T/C [11]: 1.18% | viability, T/C [12]: 1.4% | viability, T/C [31]: 3.31% | viability, T/C [32]: 1.65% | viability, T/C [13]: 2.04% | viability, T/C [14]: 1.29% | viability, T/C [15]: 1.25% | viability, T/C [16]: 0.85% | viability, T/C [33]: 2.17% | viability, T/C [34]: 1.59% | viability, T/C [17]: 1.36% | viability, T/C [18]: 0.82% | viability, T/C [19]: 0.8% | viability, T/C [20]: 0.95% | viability, T/C [35]: 2.23% | viability, T/C [36]: 1.56% | viability, T/C [21]: 1.42% | viability, T/C [22]: 0.74% | viability, T/C [23]: 0.89% | viability, T/C [24]: 0.77%
